Measurements from ChEMBL document CHEMBL1155275, “Synthesis and characterization of 6-deoxy-6-fluoro-D-fructose as a potential compound for imaging breast cancer with PET” (Bioorg Med Chem, 2009).

Assays:
Type in all cases: cell-based
[1] = biological target: T1, Solute carrier family 2, facilitated glucose transporter member 5 (Homo sapiens, UniProt P22732); assay: Inhibition of GLUT5-mediated [14C]D-fructose uptake in human MCF7 cells by liquid scintillation counting
T1 sequence (P22732 whole entry): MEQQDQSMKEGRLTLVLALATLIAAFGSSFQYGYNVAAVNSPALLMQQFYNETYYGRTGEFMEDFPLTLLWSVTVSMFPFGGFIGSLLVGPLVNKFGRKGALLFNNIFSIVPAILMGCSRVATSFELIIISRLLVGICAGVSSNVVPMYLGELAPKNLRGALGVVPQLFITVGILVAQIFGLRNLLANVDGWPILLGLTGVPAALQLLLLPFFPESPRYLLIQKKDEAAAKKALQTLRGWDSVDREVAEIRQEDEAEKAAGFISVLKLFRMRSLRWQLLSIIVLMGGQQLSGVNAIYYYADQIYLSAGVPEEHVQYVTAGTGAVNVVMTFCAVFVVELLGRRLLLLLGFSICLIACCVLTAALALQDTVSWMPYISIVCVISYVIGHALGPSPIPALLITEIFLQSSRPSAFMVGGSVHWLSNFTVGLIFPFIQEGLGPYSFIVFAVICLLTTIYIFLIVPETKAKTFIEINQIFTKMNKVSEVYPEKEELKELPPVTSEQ

[2] = biological target: T1, Solute carrier family 2, facilitated glucose transporter member 5; assay: Inhibition of GLUT5-mediated [14C]D-fructose uptake in human MDA-MB-231 cells by liquid scintillation counting
[3] = biological target: T2, Solute carrier family 2, facilitated glucose transporter member 2 (Homo sapiens, UniProt P11168); assay: Inhibition of GLUT2-mediated [14C]D-glucose uptake in human MCF7 cells by liquid scintillation counting
T2 sequence (P11168 whole entry): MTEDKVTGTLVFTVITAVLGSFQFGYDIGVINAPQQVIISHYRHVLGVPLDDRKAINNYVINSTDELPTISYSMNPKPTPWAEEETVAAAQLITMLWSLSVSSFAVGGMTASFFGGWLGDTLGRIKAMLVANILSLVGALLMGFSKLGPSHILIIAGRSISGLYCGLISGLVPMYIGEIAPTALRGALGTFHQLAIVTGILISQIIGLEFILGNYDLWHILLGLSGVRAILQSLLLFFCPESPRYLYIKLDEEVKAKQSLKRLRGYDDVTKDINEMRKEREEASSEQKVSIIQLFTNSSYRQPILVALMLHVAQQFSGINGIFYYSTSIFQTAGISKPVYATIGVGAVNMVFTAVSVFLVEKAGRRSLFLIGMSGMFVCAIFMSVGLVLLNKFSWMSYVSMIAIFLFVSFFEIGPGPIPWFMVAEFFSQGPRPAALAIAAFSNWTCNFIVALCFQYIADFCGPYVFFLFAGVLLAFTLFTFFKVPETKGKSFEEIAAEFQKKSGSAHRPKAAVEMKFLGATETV

[4] = biological target: T2, Solute carrier family 2, facilitated glucose transporter member 2; assay: Inhibition of GLUT2-mediated [14C]D-glucose uptake in human MDA-MB-231 cells by liquid scintillation counting

## OCC1(O)O[C@H](CF)[C@@H](O)[C@@H]1O (some centres undefined)
[1]
  Ki: 154 µM
[2]
  Ki: 330 µM
[3]
  Ki: 916 µM
[4]
  Ki: 6210 µM
